Test results reported in patent US20220168427A1 (Ranok Therapeutics (Hangzhou) Co. Ltd., priority 2019, published 2022).
Structures can show the parent of a compound that is named as a salt.

Legend:
[1] = biological target: HSP90α (Homo sapiens, UniProt P07900); assay: HSP90α Binding Fluorescent Polarization (FP) Assay; conditions: competition with FITC-geldanamycin; read-out: HSP90 Binding Potency
Experimental: HSP90α Binding Fluorescent Polarization (FP) Assay
A master mix was prepared with assay buffer, BSA and FITC-geldanamycin. In a 96-well plate, a serial 3-fold dilution of each compound was prepared ranging from 40 μM down until 2.0 nM. Also in a 96-well plate, recombinant HSP90α protein was diluted to 28 μg/ml. Then, in a 384-well plate, 10 μl of master mix and 5 μl of compound dilution were added per well to duplicate wells and mixed by brief shaking. Then 5 μl of diluted HSP90α protein was added per well, mixed by brief shaking, incubated at 25° C. for 30, 60 and 120 min and fluorescence was measured on an EnVision Plate Reader. Background-subtracted mP values were calculated from EnVision raw data and a four-parameter “log[inhibitor] vs. response” curve was fitted using GraphPad Prism 7.0.

[2] = biological target: T1, BRD4 (BD1+BD2) (Homo sapiens, UniProt O60885); conditions: read-out: BRD4 Binding Potency
T1 construct: 1.8 μg/ml recombinant BRD4 (BD1+BD2 domains) protein
Experimental: A master mix was prepared with assay buffer, 1.8 μg/ml recombinant BRD4 (BD1+BD2 domains) protein, and 200-fold dilutions of Tb-labeled donor and dye-labeled acceptor. 40-fold dilutions of acetylated and non-acetylated ligands were prepared in 1×BRD TR-FRET assay buffer. Also, a serial 3-fold dilution of each compound was prepared ranging from 40 μM down until 2.0 nM. In a 384-well plate, 5 μl diluted ligand and 5 μl of compound dilution were added per well to duplicate wells and mixed by brief shaking. Then 10 μl of master mix was added per well, mixed by brief shaking, incubated at 25° C. for 2 hr and fluorescence was measured on an EnVision Plate Reader. The 665 nm/615 nm ratio was calculated from EnVision raw data. Data were normalized using whole-plate averages of “positive” and “negative” readings. A four-parameter “log[inhibitor] vs. response” curve was fitted using GraphPad Prism 7.0.

[3] = system: MV4-11 cells; assay: MV4-11 Cell Cytotoxicity Assay; assay type: cell-based, human; conditions: CCK-8; for IC50 at 72 h: human, MV4-11 cells
Description: % Inhibition=100−(D−B)/(S−B)*100%.
S: The absorbance of the maximum (cells with DMSO)
B: The absorbance of the minimum (medium with DMSO)

| Compound | IC50 [1] [nM] | IC50 [2] [nM] | IC50 at 72 h [3] [nM] | IC50 ([3]; 72 hr) [nM] |
| --- | --- | --- | --- | --- |
| Cc1sc2c(c1C)C(c1ccc(Cl)cc1)=N[C@@H](CCNCC1CCN(C(=O)C3CCN(Cc4ccc(-n5c(O)nnc5-c5cc(C(C)C)c(O)cc5O)cc4)CC3)C1)c1nnc(C)n1-2 (stereo partly drawn) [Compound 66, (3-(((2-((6S)-4-(4-chlorophenyl)-2,3,9-trimethyl-6H-thieno[3,2-f][1,2,4]triazolo[4,3-a][1,4]diazepin-6-yl)ethyl)amino)methyl)pyrrolidin-1-yl)(1-(4-(3-(2,4-dihydroxy-5-isopropylphenyl)-5-hydroxy-4H-1,2,4-triazol-4-yl)benzyl)piperidin-4-yl)methanone, trifluoroacetic acid] | 100 to 1000 | > 1000 | 100 to 1000 |  |
| Cc1sc2c(c1C)C(c1ccc(Cl)cc1)=N[C@@H](CCNCC1CCN(C(=O)C3CCN(Cc4ccc(-n5c(O)nnc5-c5cc(C(C)C)c(O)cc5O)cc4)CC3)CC1)c1nnc(C)n1-2 [Compound 64, (4-(((2-((6S)-4-(4-chlorophenyl)-2,3,9-trimethyl-6H-thieno[3,2-f][1,2,4]triazolo[4,3-a][1,4]diazepin-6-yl)ethyl)amino)methyl)piperidin-1-yl)(1-(4-(3-(2,4-dihydroxy-5-isopropylphenyl)-5-hydroxy-4H-1,2,4-triazol-4-yl)benzyl)piperidin-4-yl)methanone, trifluoroacetic acid] | 100 to 1000 | 100 to 1000 | 100 to 1000 |  |
| Cc1sc2c(c1C)C(c1ccc(Cl)cc1)=N[C@@H](CC(=O)N1CCC(CN3CCN(Cc4ccc(-n5c(O)nnc5-c5cc(C(C)C)c(O)cc5O)cc4)CC3)CC1)c1nnc(C)n1-2 [Compound 103, (S)-2-(4-(4-chlorophenyl)-2,3,9-trimethyl-6H-thieno[3,2-f][1,2,4]triazolo[4,3-a][1,4]diazepin-6-yl)-1-(4-((4-(4-(3-(2,4-dihydroxy-5-isopropylphenyl)-5-hydroxy-4H-1,2,4-triazol-4-yl)benzyl)piperazin-1-yl)methyl)piperidin-1-yl)ethan-1-one acetate] | 100 to 1000 | 100 to 1000 | < 100 |  |
| Cc1sc2c(c1C)C(c1ccc(Cl)cc1)=N[C@@H](CC(=O)NCC1CN(C(=O)C3CCN(Cc4ccc(-n5c(O)nnc5-c5cc(C(C)C)c(O)cc5O)cc4)CC3)C1)c1nnc(C)n1-2 [Compound 59, 2-((6S)-4-(4-chlorophenyl)-2,3,9-trimethyl-6H-thieno[3,2-f][1,2,4]triazolo[4,3-a][1,4]diazepin-6-yl)-N-((1-(1-(4-(3-(2,4-dihydroxy-5-isopropylphenyl)-5-hydroxy-4H-1,2,4-triazol-4-yl)benzyl)piperidine-4-carbonyl)azetidin-3-yl)methyl)acetamide, trifluoroacetic acid] | 100 to 1000 | 100 to 1000 | < 100 |  |
| COc1cccc(-c2cc(C(=O)Nc3ccc(-c4ccc(OC5CCN(CC[C@@H]6N=C(c7ccc(Cl)cc7)c7c(sc(C)c7C)-n7c(C)nnc76)CC5)cc4OCCN(C)C)cc3)ccc2OC)c1 [Compound 140] | > 1000 | > 1000 |  | > 1000 |
| CCc1cc(-c2nnc(C(N)=O)n2-c2ccc(CN3CCN(CC4CCN(C(=O)C[C@@H]5N=C(c6ccc(Cl)cc6)c6c(sc(C)c6C)-n6c(C)nnc65)CC4)CC3)cc2)c(O)cc1O [Compound 120, (S)-4-(4-((4-((1-(2-(4-(4-chlorophenyl)-2,3,9-trimethyl-6H-thieno[3,2-f][1,2,4]triazolo[4,3-a][1,4]diazepin-6-yl)acetyl)piperidin-4-yl)methyl)piperazin-1-yl)methyl)phenyl)-5-(5-ethyl-2,4-dihydroxyphenyl)-4H-1,2,4-triazole-3-carboxamide hydrochloride] | 100 to 1000 | < 100 |  |  |
| Cc1sc2c(c1C)C(c1ccc(Cl)cc1)=N[C@@H](CC(=O)NCCOCc1ccc(-n3c(O)nnc3-c3cc(C(C)C)c(O)cc3O)cc1)c1nnc(C)n1-2 [Compound 52, 2-((6S)-4-(4-chlorophenyl)-2,3,9-trimethyl-6H-thieno[3,2-f][1,2,4]triazolo[4,3-a][1,4]diazepin-6-yl)-N-(2-((4-(3-(2,4-dihydroxy-5-isopropylphenyl)-5-hydroxy-4H-1,2,4-triazol-4-yl)benzyl)oxy)ethyl)acetamide] | < 100 | > 1000 | 100 to 1000 |  |
| Cc1sc2c(c1C)C(c1ccc(Cl)cc1)=N[C@@H](CC(=O)NCc1ccc(CN3CCC(Cc4ccc(-n5c(O)nnc5-c5cc(C(C)C)c(O)cc5O)cc4)CC3)cc1)c1nnc(C)n1-2 [Compound 89, (S)-2-(4-(4-chlorophenyl)-2,3,9-trimethyl-6H-thieno[3,2-f][1,2,4]triazolo[4,3-a][1,4]diazepin-6-yl)-N-(4-((4-(4-(3-(2,4-dihydroxy-5-isopropylphenyl)-5-hydroxy-4H-1,2,4-triazol-4-yl)benzyl)piperidin-1-yl)methyl)benzyl)acetamide, trifluoroacetic acid] | 100 to 1000 | 100 to 1000 | < 100 |  |
| Cc1nn(-c2ccc(C(N)=O)c(NCCOCCN3CCN(C(=O)C[C@@H]4N=C(c5ccc(Cl)cc5)c5c(sc(C)c5C)-n5c(C)nnc54)CC3)c2)c2c1C(=O)CC(C)(C)C2 [Compound 24, 2-((2-(2-(4-(2-((6S)-4-(4-chlorophenyl)-2,3,9-trimethyl-6H-thieno[3,2-f][1,2,4]triazolo[4,3-a][1,4]diazepin-6-yl)acetyl)piperazin-1-yl)ethoxy)ethyl)amino)-4-(3,6,6-trimethyl-4-oxo-4,5,6,7-tetrahydro-1H-indazol-1-yl)benzamide] | > 1000 | > 1000 | 100 to 1000 |  |
| Cc1sc2c(c1C)C(c1ccc(Cl)cc1)=N[C@@H](CC(=O)NC(C)c1ccc(CN3CCC(Cc4ccc(-n5c(O)nnc5-c5cc(C(C)C)c(O)cc5O)cc4)CC3)cc1)c1nnc(C)n1-2 (stereo in doubt) [Compound 82, 2-((S)-4-(4-chlorophenyl)-2,3,9-trimethyl-6H-thieno[3,2-f][1,2,4]triazolo[4,3-a][1,4]diazepin-6-yl)-N—((R)-1-(4-((4-(4-(3-(2,4-dihydroxy-5-isopropylphenyl)-5-hydroxy-4H-1,2,4-triazol-4-yl)benzyl)piperidin-1-yl)methyl)phenyl)ethyl)acetamide hydrochloride] |  | < 100 | < 100 |  |
| CCc1cc(-c2nnc(C(N)=O)n2-c2ccc(CN3CCN(CC4CCN(C(=O)C[C@@H]5N=C(c6ccc(Cl)cc6)c6c(sc(C)c6C)-n6c(C)nnc65)CC4)CC3)cc2)c(O)cc1O [Compound 121, (S)-4-(4-((4-((1-(2-(4-(4-chlorophenyl)-2,3,9-trimethyl-6H-thieno[3,2-f][1,2,4]triazolo[4,3-a][1,4]diazepin-6-yl)acetyl)piperidin-4-yl)methyl)piperazin-1-yl)methyl)phenyl)-5-(5-ethyl-2,4-dihydroxyphenyl)-4H-1,2,4-triazole-3-carboxamide hydrochloride] | < 100 | > 1000 |  |  |
| Cc1sc2c(c1C)C(c1ccc(Cl)cc1)=N[C@@H](CC(=O)N1CCC(CN3CCN(Cc4ccc(-n5c(O)nnc5-c5cc(C(C)C)c(O)cc5O)cc4)CC3)CC1)c1nnc(C)n1-2 [Compound 40, 2-((6S)-4-(4-chlorophenyl)-2,3,9-trimethyl-6H-thieno[3,2-f][1,2,4]triazolo[4,3-a][1,4]diazepin-6-yl)-1-(4-((4-(4-(3-(2,4-dihydroxy-5-isopropylphenyl)-5-hydroxy-4H-1,2,4-triazol-4-yl)benzyl)piperazin-1-yl)methyl)piperidin-1-yl)ethanone, trifluoroacetic acid] | < 100 | 100 to 1000 |  |  |
| CCNC(=O)c1noc(-c2cc(C(C)C)c(O)cc2O)c1-c1ccc(CN2CCN(CC3CCN(C(=O)C[C@@H]4N=C(c5ccc(Cl)cc5)c5c(sc(C)c5C)-n5c(C)nnc54)CC3)CC2)cc1 [Compound 16, 4-(4-((4-((1-(2-((6S)-4-(4-chlorophenyl)-2,3,9-trimethyl-6H-thieno[3,2-f][1,2,4]triazolo[4,3-a][1,4]diazepin-6-yl)acetyl)piperidin-4-yl)methyl)piperazin-1-yl)methyl)phenyl)-5-(2,4-dihydroxy-5-isopropylphenyl)-N-ethylisoxazole-3-carboxamide, trifluoroacetic acid] | 100 to 1000 | 100 to 1000 |  |  |
| CCc1cc(-c2nnc(O)n2-c2ccc(CN3CCN(CC4CCN(C(=O)C[C@@H]5N=C(c6ccc(Cl)cc6)c6c(sc(C)c6C)-n6c(C)nnc65)CC4)CC3)cc2)c(O)cc1O [Compound 1, 2-((6S)-4-(4-chlorophenyl)-2,3,9-trimethyl-6H-thieno[3,2-f][1,2,4]triazolo[4,3-a][1,4]diazepin-6-yl)-1-(4-((4-(4-(3-(5-ethyl-2,4-dihydroxyphenyl)-5-hydroxy-4H-1,2,4-triazol-4-yl)benzyl)piperazin-1-yl)methyl)piperidin-1-yl)ethanone] | 100 to 1000 | 100 to 1000 |  |  |
